In ChEMBL document CHEMBL4725273, “Structure-activity relationship study of cytotoxic neolignan derivatives using multivariate analysis and computation-aided drug design” (Bioorg Med Chem Lett, 2020):

Key:
[1] = system: B16-F10; experiment: Cytotoxicity against mouse B16-F10 cells; assay type: functional, cell-based
[2] = system: A2058; experiment: Cytotoxicity against human A2058 cells; assay type: functional, cell-based
[3] = Cytotoxicity against human T75 cells; assay type: cell-based
[4] = Selectivity index, ratio for IC50 for human T75 cells to IC50 for human A2058 cells

Compound	IC50 [1]	IC50 [2]	IC50 [3]	Ratio IC50 [4]
C=CCc1ccc(Oc2cc(C(=O)C=C)cc(OC)c2OC)c(OC)c1	> 100 µM	> 100 µM	> 100 µM	–
C=CCc1ccc(Oc2cc(CC=C)cc(OC)c2Oc2ccccc2)c(OC)c1	> 100 µM	> 100 µM	> 100 µM	–
CCCc1ccc(Oc2cc(CCC)cc(OC)c2OC)c(OC)c1	> 100 µM	> 100 µM	> 100 µM	–
CCCc1ccc(Oc2cc(CCC)cc(OC)c2Oc2ccccc2)c(OC)c1	> 100 µM	> 100 µM	> 100 µM	–
C=CCc1ccc(Oc2cc(C(O)C=C)cc(OC)c2OC)c(OC)c1 (stereo not given)	90.3 µM	> 100 µM	> 100 µM	–
C=CCc1ccc(Oc2cc(C(=O)C=C)cc(OC)c2O)c(OC)c1	82.2 µM	85.3 µM	> 100 µM	>1.2
COc1cc(C=O)ccc1Oc1cc(C=O)cc(OC)c1OC=O	80.2 µM	61.4 µM	> 100 µM	>1.6
CCC(O)Oc1c(OC)cc(C(O)CC)cc1Oc1ccc(C(O)CC)cc1OC (stereo not given)	> 100 µM	> 100 µM	> 100 µM	–
COc1cc(CC(C)O)ccc1Oc1cc(CC(C)O)cc(OC)c1OCC(C)O (stereo not given)	> 100 µM	> 100 µM	> 100 µM	–
CCCS(=O)(=O)Nc1ccc(F)c(C(=O)c2c[nH]c3ncc(-c4ccc(Cl)cc4)cc23)c1F [VEMURAFENIB]	–	8.7 µM	> 100 µM	>11.5
COc1cc(CCCO)ccc1Oc1cc(CCCO)cc(OC)c1OCCCO	> 100 µM	> 100 µM	> 100 µM	–
COc1cc(CC(C)=O)ccc1Oc1cc(CC(C)=O)cc(OC)c1OCC(C)=O	> 100 µM	> 100 µM	> 100 µM	–
C=CCc1ccc(Oc2cc(C(O)C=C)cc(OC)c2O)c(OC)c1 (stereo not given)	> 100 µM	> 100 µM	> 100 µM	–
CCCOc1c(OC)cc(CCC)cc1Oc1ccc(CCC)cc1OC	79 µM	52.2 µM	> 100 µM	>1.9
